Measurements from ChEMBL document CHEMBL1201862, “PubChem BioAssay data set” (2004).
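Assay format: 96-well plates, 48-hour exposure. At the GI50, growth is halved.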 The source made the active and inactive calls. Rule as the data show it: active = GI50 up to about 1.1 µM and inactive = higher.

Tests used:
Test in all cases: NCI-60 cell line screen, 48 h
[1] = tested on: UACC-62
[2] = tested on: NCI/ADR-RES
[3] = tested on: SK-OV-3
[4] = tested on: CAKI-1
[5] = tested on: RPMI-8226
[6] = tested on: SF-268
[7] = tested on: NCI-H522
[8] = tested on: OVCAR-5
[9] = tested on: CCRF-CEM
[10] = tested on: A549
[11] = tested on: SW-620
[12] = tested on: MDA-MB-435
[13] = tested on: OVCAR-8
[14] = tested on: M14
[15] = tested on: MCF7
[16] = tested on: HCT-116
[17] = tested on: ACHN
[18] = tested on: UACC-257
[19] = tested on: NCI-H226

Row | Compound | GI50 [1] | GI50 [2] | GI50 [3] | GI50 [4] | GI50 [5] | GI50 [6] | GI50 [7] | GI50 [8] | GI50 [9] | GI50 [10] | GI50 [11] | GI50 [12] | GI50 [13] | GI50 [14] | GI50 [15] | GI50 [16] | GI50 [17] | GI50 [18] | GI50 [19]
1 | Cc1c/c(=N\c2ccc3c(c2)c(N)cc(C)[n+]3C)nc(N)n1C | > 100 µM (inactive) | > 100 µM (inactive) | > 100 µM (inactive) | > 100 µM (inactive) | > 100 µM (inactive) | > 100 µM (inactive) | > 100 µM (inactive) | > 100 µM (inactive) | > 100 µM (inactive) | > 100 µM (inactive) | > 100 µM (inactive) | > 100 µM (inactive) | 86.3 µM (inactive) | > 100 µM (inactive) | > 100 µM (inactive) | > 100 µM (inactive) | > 100 µM (inactive) | > 100 µM (inactive) | 
2 | NCCCCCCn1c(-c2ccc(Br)cc2)cs/c1=N\c1ccccc1 | 17.4 µM (inactive) | 12.2 µM (inactive) | 17.2 µM (inactive) | 14.6 µM (inactive) | 3.33 µM (inactive) | 13.9 µM (inactive) | 10.5 µM (inactive) | 12.2 µM (inactive) | 6.9 µM (inactive) | 12.5 µM (inactive) | 4.28 µM (inactive) | 10.8 µM (inactive) | 11.9 µM (inactive) | 1.44 µM (inactive) | 5.21 µM (inactive) | 4.09 µM (inactive) | 14.6 µM (inactive) | 15.2 µM (inactive) | 16.9 µM (inactive)
3 | O=C(O)C(Cc1ccccc1-c1ccccc1)C(=O)O | > 100 µM (inactive) | > 100 µM (inactive) |  | > 100 µM (inactive) | > 100 µM (inactive) | > 100 µM (inactive) | > 100 µM (inactive) | > 100 µM (inactive) |  | > 100 µM (inactive) | > 100 µM (inactive) | > 100 µM (inactive) | > 100 µM (inactive) | > 100 µM (inactive) | > 100 µM (inactive) | > 100 µM (inactive) | > 100 µM (inactive) | > 100 µM (inactive) | > 100 µM (inactive)
4 | CC1(C)O[C@H](C(=O)O)[C@@H](C(=O)O)O1 | > 100 µM (inactive) | > 100 µM (inactive) | > 100 µM (inactive) | > 100 µM (inactive) | > 100 µM (inactive) | > 100 µM (inactive) | > 100 µM (inactive) | > 100 µM (inactive) | > 100 µM (inactive) | > 100 µM (inactive) | > 100 µM (inactive) | > 100 µM (inactive) | > 100 µM (inactive) | > 100 µM (inactive) | > 100 µM (inactive) | > 100 µM (inactive) | > 100 µM (inactive) | > 100 µM (inactive) | > 100 µM (inactive)
5 | COc1ccc(C(O)c2ccccn2)cc1 (stereo not given) | > 100 µM (inactive) | > 100 µM (inactive) | > 100 µM (inactive) | > 100 µM (inactive) | > 100 µM (inactive) | > 100 µM (inactive) | > 100 µM (inactive) | > 100 µM (inactive) |  | > 100 µM (inactive) | > 100 µM (inactive) | > 100 µM (inactive) | > 100 µM (inactive) | > 100 µM (inactive) | > 100 µM (inactive) | > 100 µM (inactive) | > 100 µM (inactive) | > 100 µM (inactive) | > 100 µM (inactive)
6 | C=C(C)COC(=O)COCC(=O)OCC(=C)C | > 100 µM (inactive) | > 100 µM (inactive) | > 100 µM (inactive) | > 100 µM (inactive) | > 100 µM (inactive) | > 100 µM (inactive) |  | > 100 µM (inactive) | > 100 µM (inactive) | > 100 µM (inactive) | > 100 µM (inactive) | > 100 µM (inactive) | > 100 µM (inactive) | > 100 µM (inactive) | > 100 µM (inactive) | > 100 µM (inactive) | > 100 µM (inactive) | > 100 µM (inactive) | > 100 µM (inactive)
7 | O=C(O)Cn1cnc2c(O)nc(Nc3ccccc3)nc21 | > 100 µM (inactive) | > 100 µM (inactive) | > 100 µM (inactive) | > 100 µM (inactive) | > 100 µM (inactive) | > 100 µM (inactive) | > 100 µM (inactive) | > 100 µM (inactive) | > 100 µM (inactive) | > 100 µM (inactive) | > 100 µM (inactive) | > 100 µM (inactive) | > 100 µM (inactive) | > 100 µM (inactive) | > 100 µM (inactive) | > 100 µM (inactive) | > 100 µM (inactive) | > 100 µM (inactive) | > 100 µM (inactive)
8 | C[C@]1(O)CC(=O)c2c(c(-c3ccc4cc5c(c(O)c4c3O)C(=O)C[C@@](C)(O)C5)c3cccc(O)c3c2O)C1 | 5.64 µM (inactive) | 5.15 µM (inactive) | 10.3 µM (inactive) | 5.14 µM (inactive) | 4.67 µM (inactive) | 4.31 µM (inactive) | 4.88 µM (inactive) | 9.46 µM (inactive) | 6.71 µM (inactive) | 4.24 µM (inactive) | 6 µM (inactive) | 7.05 µM (inactive) | 5.02 µM (inactive) | 5.56 µM (inactive) | 5.53 µM (inactive) | 3.48 µM (inactive) | 4.04 µM (inactive) | 7.36 µM (inactive) | 3.85 µM (inactive)
9 | C(#C[C@@]12CCC[C@@H]1N(Cc1ccccc1)CO2)c1ccc2c(c1)OCO2 | > 100 µM (inactive) | > 100 µM (inactive) | > 100 µM (inactive) | > 100 µM (inactive) | > 100 µM (inactive) | > 100 µM (inactive) |  | > 100 µM (inactive) | > 100 µM (inactive) | > 100 µM (inactive) | > 100 µM (inactive) | > 100 µM (inactive) | > 100 µM (inactive) | > 100 µM (inactive) | > 100 µM (inactive) | > 100 µM (inactive) | > 100 µM (inactive) | > 100 µM (inactive) | > 100 µM (inactive)
10 | COc1ccc(-n2cnc3c(NC(Cc4ccccc4)C(=O)O)ncnc32)cc1 (stereo not given) | > 100 µM (inactive) | > 100 µM (inactive) | > 100 µM (inactive) | > 100 µM (inactive) | > 100 µM (inactive) | > 100 µM (inactive) |  | > 100 µM (inactive) | > 100 µM (inactive) | > 100 µM (inactive) | > 100 µM (inactive) | > 100 µM (inactive) | > 100 µM (inactive) | > 100 µM (inactive) | > 100 µM (inactive) | > 100 µM (inactive) | > 100 µM (inactive) | > 100 µM (inactive) | > 100 µM (inactive)
11 | COC[C@H]1OC(=O)c2coc3c2[C@@]1(C)C1=C(C3=O)[C@@H]2CCC(=O)[C@@]2(C)C[C@H]1OC(C)=O [WORTMANNIN] | 1.31 µM (inactive) | 38.8 µM (inactive) |  | 0.0108 µM (active) | 2.43 µM (inactive) | 21.4 µM (inactive) | 13.8 µM (inactive) | 15 µM (inactive) | 1.38 µM (inactive) | 6.56 µM (inactive) | 17.7 µM (inactive) | 3.25 µM (inactive) | 25 µM (inactive) | 2.15 µM (inactive) | 5.66 µM (inactive) | 13.4 µM (inactive) | 13.6 µM (inactive) | 2.95 µM (inactive) | 
